Data taken from article PMC8991199, “Promiscuity mapping of the S100 protein family using a high-throughput holdup assay” (Scientific Reports, 2022).

Experiments:
Type in all cases: binding
S100A2 = S100A2 (Homo sapiens, UniProt P29034); experiment: direct fluorescence polarization (FP), S100A2; conditions: S100A2, 50 nM labeled foldamer, 20 mM HEPES pH 7.5, 150 mM NaCl, 1 mM CaCl2, 0.5 mM TCEP, 0.01% Tween20, quadratic fit, mean ± SEM, three technical repeats, threshold 1 mM
Description: (§1) HTP (and also low-throughput) measurements generally need to be validated by an orthogonal approach to eliminate experimental artifacts. […] In this assay, the association of the fluorescently labeled foldamer and the S100 protein of interest is monitored, through the change in polarization of the emitted light by the fluorophore upon the binding event. In direct FP, the presence of the fluorophore might change the binding affinity of some foldamers. […] Nevertheless, we assumed that the fluorophore would affect all foldamers that target the same binding site to the same degree, because the foldamer scaffold is rigid.
(§2) Briefly, S100 proteins were cloned into a modified pET15b vector with a TEV protease cleavable N-terminal His6-tag and expressed in Escherichia coli BL21 (DE3) cells, followed by Ni^2+-affinity chromatography. For HU assay, S100 proteins were further purified by either hydrophobic interaction chromatography or ion exchange chromatography without the cleavage of the N-terminal His6-tag applying standard conditions. For direct FP measurements, the N-terminal His6-tag was cleaved, and the S100 proteins were purified by hydrophobic interaction chromatography, ion exchange chromatography or size exclusion chromatography. The quality of the recombinant proteins was checked by SDS-PAGE analysis in all cases. The concentration of the recombinant S100 proteins was determined by UV spectrophotometry using the absorbance of Tyr and Trp residues.
(§3) In direct fluorescence polarization assays, S100 proteins were diluted in a buffer containing 50 nM labeled foldamer, 20 mM HEPES pH 7.5, 150 mM NaCl, 1 mM CaCl2, 0.5 mM TCEP and 0.01% Tween20. The dilution series (50 µl) were divided into three technical repeats and transferred (15 µl) to a 384-well microplate. In competitive fluorescence polarization assays, the buffer applied in direct measurements was supplemented with the S100 protein of interest to reach a saturation of 60–80%. This mixture was titrated with the competitor (i.e. the unlabeled peptide). Fluorescence polarization was measured in 8 different S100 concentrations (one of which contained no S100 protein) on a Synergy H4 plate reader using 485 ± 20 nm and 528 ± 20 nm band-pass filters for excitation and emission, respectively. The Kd values were obtained by fitting the data from the FP measurements with the python-based ProFit software using quadratic and competitive binding equation for direct and competitive FP, respectively. The detection threshold was based on two parameters. First, we rejected all fitted dissociation constants above 1 mM.

S100A13 = biological target: T1, S100A13 (Homo sapiens, UniProt Q99584); experiment: direct fluorescence polarization (FP), S100A13; conditions: for Kd: S100A13, 50 nM labeled foldamer, 20 mM HEPES pH 7.5, 150 mM NaCl, 1 mM CaCl2, 0.5 mM TCEP, 0.01% Tween20, quadratic fit, mean ± SEM, three technical repeats, threshold 1 mM
T1 sequence (Q99584 1-98): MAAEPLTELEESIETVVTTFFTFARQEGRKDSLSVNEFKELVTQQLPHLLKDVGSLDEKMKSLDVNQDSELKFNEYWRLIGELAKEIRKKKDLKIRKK
Procedure: (§4) HTP (and also low-throughput) measurements generally need to be validated by an orthogonal approach to eliminate experimental artifacts. […] This way, we chose WL, IF, WW, YF, IL, VL, TW, RF, RR, TI, TM, and after resynthesizing with a fluorescent label at the C-terminus (Figs. S15–S26, Table S1), the S100ome was tested against the labeled foldamers by direct fluorescence polarization (FP) (Fig. 3A). In this assay, the association of the fluorescently labeled foldamer and the S100 protein of interest is monitored, through the change in polarization of the emitted light by the fluorophore upon the binding event. In direct FP, the presence of the fluorophore might change the binding affinity of some foldamers. […] Nevertheless, we assumed that the fluorophore would affect all foldamers that target the same binding site to the same degree, because the foldamer scaffold is rigid. Defining the threshold of detection at the dissociation constant of 1 mM, we identified 87 interactions between the selected foldamer fragments and the S100ome out of 220 possible interactions (Table 1, Fig. S4-14).
as §2, §3

S100A14 = biological target: T2, S100A14 (Homo sapiens, UniProt Q9HCY8); experiment: direct fluorescence polarization (FP), S100A14; conditions: S100A14, 50 nM labeled foldamer, 20 mM HEPES pH 7.5, 150 mM NaCl, 1 mM CaCl2, 0.5 mM TCEP, 0.01% Tween20, quadratic fit, mean ± SEM, three technical repeats, threshold 1 mM
T2 sequence (Q9HCY8 1-104): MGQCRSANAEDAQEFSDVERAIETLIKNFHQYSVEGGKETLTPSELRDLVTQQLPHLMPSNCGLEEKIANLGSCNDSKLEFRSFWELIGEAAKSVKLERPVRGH
Procedure: as §4, §2, §3

S100A3 = biological target: T3, S100A3 (Homo sapiens, UniProt P33764); experiment: direct fluorescence polarization (FP), S100A3; conditions: S100A3, 50 nM labeled foldamer, 20 mM HEPES pH 7.5, 150 mM NaCl, 1 mM CaCl2, 0.5 mM TCEP, 0.01% Tween20, quadratic fit, mean ± SEM, three technical repeats, threshold 1 mM
T3 sequence (P33764 1-101): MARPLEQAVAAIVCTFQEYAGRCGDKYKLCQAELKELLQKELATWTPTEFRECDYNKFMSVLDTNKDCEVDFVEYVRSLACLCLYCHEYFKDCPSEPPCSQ
Procedure: as §4, §2, §3

S100A10 = S100A10 (Homo sapiens, UniProt P60903); experiment: direct fluorescence polarization (FP), S100A10; conditions: S100A10, 50 nM labeled foldamer, 20 mM HEPES pH 7.5, 150 mM NaCl, 1 mM CaCl2, 0.5 mM TCEP, 0.01% Tween20, quadratic fit, mean ± SEM, three technical repeats, threshold 1 mM
Description: as §1, §2, §3

S100P = biological target: T4, S100P (Homo sapiens, UniProt P25815); experiment: direct fluorescence polarization (FP), S100P; conditions: 50 nM labeled foldamer, 20 mM HEPES pH 7.5, 150 mM NaCl, 1 mM CaCl2, 0.5 mM TCEP, 0.01% Tween20, quadratic fit, mean ± SEM, three technical repeats, threshold 1 mM
T4 sequence (P25815 1-95): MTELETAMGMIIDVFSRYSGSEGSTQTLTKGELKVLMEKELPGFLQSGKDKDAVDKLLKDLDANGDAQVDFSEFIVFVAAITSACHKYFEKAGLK
Description: as §1, §2, §3

S100B = biological target: T5, S100B (Homo sapiens, UniProt P04271); experiment: direct fluorescence polarization (FP), S100B; conditions: 50 nM labeled foldamer, 20 mM HEPES pH 7.5, 150 mM NaCl, 1 mM CaCl2, 0.5 mM TCEP, 0.01% Tween20, quadratic fit, mean ± SEM, three technical repeats, threshold 1 mM
T5 sequence (P04271 1-92): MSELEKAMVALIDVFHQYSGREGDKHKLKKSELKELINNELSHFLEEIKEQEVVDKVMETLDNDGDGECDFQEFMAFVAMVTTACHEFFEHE
Procedure: as §4, §2, §3

Chain of S100A10 (P60903 whole entry): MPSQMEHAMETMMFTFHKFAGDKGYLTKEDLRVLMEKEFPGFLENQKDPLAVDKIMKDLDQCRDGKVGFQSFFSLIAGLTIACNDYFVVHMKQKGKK
Chain of S100A2 (P29034 whole entry): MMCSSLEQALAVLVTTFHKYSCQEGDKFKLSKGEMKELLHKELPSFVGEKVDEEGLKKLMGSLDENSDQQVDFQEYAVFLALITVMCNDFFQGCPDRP

SMILES	Kd (S100A2) [µM]	Kd (S100A13) [µM]	Kd (S100A14) [µM]	Kd (S100A3) [µM]	Kd (S100A10) [µM]	Kd (S100P) [µM]	Kd (S100B) [µM]	increase of the polarization upon adding S100A13 (S100A13; Fig. 3A right panel)
CC(C)C[C@@H](CC(=O)N[C@H]1CCCC[C@@H]1C(=O)NCC(=O)N[C@@H](CCCCNC(=O)c1ccc2c(c1)C1(OC2=O)c2ccc(O)cc2Oc2cc(O)ccc21)C(N)=O)NC(=O)[C@H]1CCCC[C@@H]1NC(=O)[C@H]1CCCC[C@@H]1NC(=O)C[C@H](Cc1c[nH]c2ccccc12)NC(=O)[C@H]1CCCC[C@@H]1N [fWL]	11 ± 0.39	> 1000	> 1000	> 1000	23 ± 0.7	75 ± 5.8	11 ± 0.81	–
NC(=O)[C@H](CCCCNC(=O)c1ccc2c(c1)C1(OC2=O)c2ccc(O)cc2Oc2cc(O)ccc21)NC(=O)CNC(=O)[C@H]1CCCC[C@@H]1NC(=O)C[C@H](Cc1c[nH]c2ccccc12)NC(=O)[C@H]1CCCC[C@@H]1NC(=O)[C@H]1CCCC[C@@H]1NC(=O)C[C@H](Cc1c[nH]c2ccccc12)NC(=O)[C@H]1CCCC[C@@H]1N [fWW]	65 ± 1.2	> 1000	> 1000	310 ± 21	150 ± 5.2	190 ± 6.9	> 1000	–
CC[C@H](C)[C@@H](CC(=O)N[C@H]1CCCC[C@@H]1C(=O)NCC(=O)N[C@@H](CCCCNC(=O)c1ccc2c(c1)C1(OC2=O)c2ccc(O)cc2Oc2cc(O)ccc21)C(N)=O)NC(=O)[C@H]1CCCC[C@@H]1NC(=O)[C@H]1CCCC[C@@H]1NC(=O)C[C@@H](NC(=O)[C@H]1CCCC[C@@H]1N)[C@@H](C)O [fTI]	> 1000	> 1000	> 1000	> 1000	> 1000	> 1000	> 1000	–
CC[C@H](C)[C@@H](CC(=O)N[C@H]1CCCC[C@@H]1C(=O)N[C@H]1CCCC[C@@H]1C(=O)N[C@H](CC(=O)N[C@H]1CCCC[C@@H]1C(=O)NCC(=O)N[C@@H](CCCCNC(=O)c1ccc2c(c1)C1(OC2=O)c2ccc(O)cc2Oc2cc(O)ccc21)C(N)=O)Cc1ccccc1)NC(=O)[C@H]1CCCC[C@@H]1N [fIF]	38 ± 1.5	> 1000	> 1000	180 ± 8.4	97 ± 2.5	140 ± 5.8	140 ± 7.9	–
C[C@@H](O)[C@@H](CC(=O)N[C@H]1CCCC[C@@H]1C(=O)N[C@H]1CCCC[C@@H]1C(=O)N[C@H](CC(=O)N[C@H]1CCCC[C@@H]1C(=O)NCC(=O)N[C@@H](CCCCNC(=O)c1ccc2c(c1)C1(OC2=O)c2ccc(O)cc2Oc2cc(O)ccc21)C(N)=O)Cc1c[nH]c2ccccc12)NC(=O)[C@H]1CCCC[C@@H]1N [fTW]	–	> 1000	> 1000	> 1000	–	–	280 ± 17	–
NC(=O)[C@H](CCCCNC(=O)c1ccc2c(c1)C1(OC2=O)c2ccc(O)cc2Oc2cc(O)ccc21)NC(=O)CNC(=O)[C@H]1CCCC[C@@H]1NC(=O)C[C@H](Cc1ccccc1)NC(=O)[C@H]1CCCC[C@@H]1NC(=O)[C@H]1CCCC[C@@H]1NC(=O)C[C@H](Cc1ccc(O)cc1)NC(=O)[C@H]1CCCC[C@@H]1N [fYF]	26 ± 2.1	> 1000	> 1000	> 1000	70 ± 3.5	79 ± 5.7	28 ± 1.7	only a minor linear increase of the polarization
CC[C@H](C)[C@@H](CC(=O)N[C@H]1CCCC[C@@H]1C(=O)N[C@H]1CCCC[C@@H]1C(=O)N[C@H](CC(=O)N[C@H]1CCCC[C@@H]1C(=O)NCC(=O)N[C@@H](CCCCNC(=O)c1ccc2c(c1)C1(OC2=O)c2ccc(O)cc2Oc2cc(O)ccc21)C(N)=O)CC(C)C)NC(=O)[C@H]1CCCC[C@@H]1N [fIL]	78 ± 8.7	> 1000	> 1000	> 1000	72 ± 1.6	330 ± 92	63 ± 4.4	–

Now from value to molecule, other results behind:

Kd (S100A2) [µM]	Kd (S100A13) [µM]	Kd (S100A14) [µM]	Kd (S100A3) [µM]	Kd (S100A10) [µM]	Kd (S100P) [µM]	Kd (S100B) [µM]	SMILES	increase of the polarization upon adding S100A13 (S100A13; Fig. 3A right panel)
340 ± 21	> 1000	> 1000	> 1000	320 ± 19	190 ± 17	230 ± 5.9	N=C(N)NCCC[C@@H](CC(=O)N[C@H]1CCCC[C@@H]1C(=O)N[C@H]1CCCC[C@@H]1C(=O)N[C@H](CC(=O)N[C@H]1CCCC[C@@H]1C(=O)NCC(=O)N[C@@H](CCCCNC(=O)c1ccc2c(c1)C1(OC2=O)c2ccc(O)cc2Oc2cc(O)ccc21)C(N)=O)Cc1ccccc1)NC(=O)[C@H]1CCCC[C@@H]1N [fRF]	–
> 1000	> 1000	> 1000	> 1000	> 1000	> 1000	> 1000	CSCC[C@@H](CC(=O)N[C@H]1CCCC[C@@H]1C(=O)NCC(=O)N[C@@H](CCCCNC(=O)c1ccc2c(c1)C1(OC2=O)c2ccc(O)cc2Oc2cc(O)ccc21)C(N)=O)NC(=O)[C@H]1CCCC[C@@H]1NC(=O)[C@H]1CCCC[C@@H]1NC(=O)C[C@@H](NC(=O)[C@H]1CCCC[C@@H]1N)[C@@H](C)O [fTM]	–
61 ± 5.5	> 1000	> 1000	> 1000	> 1000	> 1000	210 ± 26	N=C(N)NCCC[C@@H](CC(=O)N[C@H]1CCCC[C@@H]1C(=O)NCC(=O)N[C@@H](CCCCNC(=O)c1ccc2c(c1)C1(OC2=O)c2ccc(O)cc2Oc2cc(O)ccc21)C(N)=O)NC(=O)[C@H]1CCCC[C@@H]1NC(=O)[C@H]1CCCC[C@@H]1NC(=O)C[C@H](CCCNC(=N)N)NC(=O)[C@H]1CCCC[C@@H]1N [fRR]	–
210 ± 110	> 1000	> 1000	> 1000	110 ± 5.5	> 1000	50 ± 6.4	CC(C)C[C@@H](CC(=O)N[C@H]1CCCC[C@@H]1C(=O)NCC(=O)N[C@@H](CCCCNC(=O)c1ccc2c(c1)C1(OC2=O)c2ccc(O)cc2Oc2cc(O)ccc21)C(N)=O)NC(=O)[C@H]1CCCC[C@@H]1NC(=O)[C@H]1CCCC[C@@H]1NC(=O)C[C@@H](NC(=O)[C@H]1CCCC[C@@H]1N)C(C)C [fVL]	–
